The values below come from a compilation of properties of binary mixtures (doi:10.1016/j.molliq.2016.09.008).

Each structure is given as a SMILES string.

This data set can be described thus: xn = mol fraction of the nth substance listed. As to conditions: 298.15 K, 101 kPa.

Broadly, the viscosity is the resistance of a fluid to flow.

Regarding `C[N+](=O)[O-]` + CC[NH3+].O=[N+]([O-])[O-], for the setting “x1 = 1”, the electrical conductivity turned out to be 0.0031 S/m and the viscosity amounted to 0.637 mPa·s.

`CC[NH3+].O=[N+]([O-])[O-]` + C[N+](=O)[O-] had an electrical conductivity (x1 = 0.0034) of 0.0549 S/m; an electrical conductivity (x1 = 0.0062) of 0.0721 S/m; an electrical conductivity (x1 = 0.0112) of 0.0945 S/m; an electrical conductivity (x1 = 0.0129) of 0.1 S/m; an electrical conductivity (x2 = 0.0498) of 2.34 S/m; an electrical conductivity (x2 = 0.1048) of 2.4 S/m. The molecule further returned an electrical conductivity (x2 = 0.2032) of 2.56 S/m, an electrical conductivity (x2 = 0.3007) of 2.7 S/m, an electrical conductivity (x2 = 0.3874) of 2.94 S/m and an electrical conductivity (x2 = 0.4983) of 2.71 S/m. For the same molecule, the viscosity stood at 0.652 mPa·s (x1 = 0.0034); 0.662 mPa·s (x1 = 0.0062); 0.679 mPa·s (x1 = 0.0112); 0.683 mPa·s (x1 = 0.0129); 34.1 mPa·s (x2 = 0.0498); 31.5 mPa·s (x2 = 0.1048). For the same molecule, the viscosity was determined as 23.9 mPa·s (x2 = 0.2032), 20.3 mPa·s (x2 = 0.3007), 15.3 mPa·s (x2 = 0.3874) and 8.52 mPa·s (x2 = 0.4983).
